# Test results from paper PMC3319558, “Functional Correlates of Positional and Gender-Specific Renal Asymmetry in Drosophila” (PLoS ONE, 2012).
# Entries after “also recorded” stand apart in the source; their conditions may differ. Ends that are not written are not given here. Peptide text beside a SMILES is read from it.
# Legend:
# female tubules = experiment: Tubule fluid secretion assay; design: species or system Drosophila melanogaster; conditions: sNPF 10^−7 M added at 30 min, average rates before vs after addition
# Description: (§1) Classical fluid secretion assays were performed as previously described by Dow et al.. Briefly, basal fluid secretion rates of the dissected live tubules were established for 30 min after which the required concentrations of peptides were added and secretion was measured for a further 70 min. The rates of secretion (in nl/min) were represented as the mean (±SEM) of approximately 30–35 tubules coming from 3 independent biological replicates.
# (§2) sNPF (AQRSPSLRLRF-NH2) and MIP (AWQSLQSSW-NH2) peptides were synthesised by Biomatik, USA with a purity of greater than 98%. NPF ([…]-NH2) peptide was a kind gift from Professor Ian Orchard (University of Toronto Mississauga). According to the peptide profiles generated by peptide profile calculator (Gene Script, UK), they were dissolved first in water to produce a stock solution of 10 mM and subsequently diluted in the Schneider’s medium to get required final concentrations.
# male tubules = experiment: Tubule fluid secretion assay; design: species or system Drosophila melanogaster; conditions: sNPF 10^−7 M added at 30 min, average rates before vs after addition, *** Student's t-test, two tailed, P<0.05, N = 10 tubules (typical trace)
# Description: as §1, §2
# female = conditions: transferred with the sperm to the female; ref [58]; cited from earlier work
# Excerpt: (§3) Intriguingly, two well-known receptors (for sex peptide and neuropeptide F) are prominently male-enriched (Supporting information S1). Their spatial expression patterns are presented along with their peptide ligands in Supporting information S1. Sex peptide receptor (SPR) is 6.6x male-enriched.
# right and left tubules = conditions: right v. left tubules; chloride conductance under control of leucokinin through intracellular calcium; ref [48], [49]; cited from earlier work
# Excerpt: Bestrophin 2 encodes (of four Drosophila bestrophins) the most closely related to human bestrophin 1, a calcium- and volume-activated chloride channel of retinal pigmented epithelial cells, which is mutated in Best’s macular dystrophy, [44]. However, Bestrophins play wider roles: they are implicated in epithelial-to-mesenchymal transitions in human kidney, and in olfactory transduction. In Drosophila, Best1 also mediates a calcium and volume activated chloride current. FlyAtlas reports that, although expressed in eye, Best2 is abundant in epithelia; in adult tubul ...
# male Malpighian tubules = conditions: 3 h
# Description: Cytosolic [Ca^2+]cyto or peroxisomal [Ca^2+]perox calcium was measured in tubules expressing transgenic aequorin according to published protocols [88], [89]. Briefly, the tubules were dissected, incubated at room temperature with 2.5 µM coelenterazine to reconstitute aequorin for 3 h. Calcium-dependent aequorin luminescence was measured in 10 biological replicates each containing 20-pairs of tubules. At the end of each experiment, total aequorin was released using 300 µl of lysis buffer (1% (v/v) Triton X-100, 100 mM CaCl2) in order to calculate the total luminescence; and the data were back-integrated using a program written in Perl, based on the method described by Button and Eidsath [90]. Data are presented as the mean (±SEM) and statistical significance was calculated using unpaired t-test.
# Drosophila SPR = conditions: more sensitive to MIP than to SP itself; ref [59]; cited from earlier work
# Excerpt: as §3
molecule,measurement,setting,value
"AQRSPSLRLRF-NH2 [sNPF, short neuropeptide F, distantly related peptide, the so called short neuropeptide F; synthesised by Biomatik]",Resting fluid secretion,female tubules,not female; also recorded: only of male tubules
same,Resting fluid secretion,male tubules,inhibits fluid secretion in male; also recorded: inhibits resting fluid secretion
"Sex peptide: transferred with the sperm to the female (WEWPWNRKPTKFPIPSPNPRDKWCRLNLGPAWGGRC; ends and bridges not checked; cysteine pairing not given here; UniProt P05623 20-55, looked up)",Change in female physiology and behaviour,female,a reduction in receptivity to subsequent matings
"leucokinin: diuretic neuropeptide leucokinin, which acts through intracellular calcium (NSVVLGKKQRFHSWG; ends and bridges not checked; UniProt P81829 133-147, looked up)",Action on right and left tubules,right and left tubules,acts equally on both right and left tubules
"CSCC[C@H](NC(=O)[C@@H](NC(=O)[C@H](CC(N)=O)NC(=O)[C@@H](NC(=O)[C@H](CC(=O)O)NC(=O)[C@H](CC(N)=O)NC(=O)[C@H](CCCCN)NC(=O)[C@H](CCCNC(=N)N)NC(=O)[C@@H]1CCCN1C(=O)[C@@H]1CCCN1C(=O)[C@H](CCCNC(=N)N)NC(=O)[C@H](CO)NC(=O)[C@H](CC(N)=O)NC(=O)[C@@H](N)CO)C(C)C)[C@@H](C)O)C(=O)N[C@@H](C)C(=O)N[C@@H](CC(=O)O)C(=O)N[C@@H](C)C(=O)N[C@@H](Cc1ccc(O)cc1)C(=O)N[C@@H](CCCCN)C(=O)N[C@@H](Cc1ccccc1)C(=O)N[C@@H](CC(C)C)C(=O)N[C@@H](CCC(N)=O)C(=O)N[C@@H](CC(=O)O)C(=O)N[C@@H](CC(C)C)C(=O)N[C@@H](CC(=O)O)C(=O)N[C@H](C(=O)N[C@@H](Cc1ccc(O)cc1)C(=O)N[C@@H](Cc1ccc(O)cc1)C(=O)NCC(=O)N[C@@H](CC(=O)O)C(=O)N[C@@H](CCCNC(=N)N)C(=O)N[C@@H](C)C(=O)N[C@@H](CCCNC(=N)N)C(=O)N[C@H](C(=O)N[C@@H](CCCNC(=N)N)C(=O)N[C@@H](Cc1ccccc1)C(N)=O)C(C)C)[C@@H](C)O [NPF, neuropeptide F] (H-SNSRPPRKNDVNTMADAYKFLQDLDTYYGDRARVRF-NH2)",EC50,male Malpighian tubules,6 nM
"AWQSLQSSW-NH2 [allatostatin-B, the Drosophila MIP, allatostatin-B]",Sensitivity of Drosophila SPR relative to SP,Drosophila SPR,10 x
